Reference: patent publication US20050043333A1, “Quinazolinone derivative” (Fujisawa Pharmaceutical Co., Ltd, priority 2001, published 2005)

Target: recombinant human PARP (Homo sapiens, UniProt P09874)
Test: PARP Inhibitory Activity (In Vitro Assay)
Assay type: biochemical
Conditions: 32P-NAD, 0.05 mM NAD, activated DNA, 15 minutes at room temperature
Method: Incubation was for 15 minutes at a room temperature and the reaction was stopped by the addition of 200 μl of ice-cold 20% trichloroacetic acid followed by rapid filtration through GF/B filters. The filters were treated with scintillation fluid and acid-insoluble counts were measured for quantification of unit activity.

Sequence of recombinant human PARP (P09874 whole entry): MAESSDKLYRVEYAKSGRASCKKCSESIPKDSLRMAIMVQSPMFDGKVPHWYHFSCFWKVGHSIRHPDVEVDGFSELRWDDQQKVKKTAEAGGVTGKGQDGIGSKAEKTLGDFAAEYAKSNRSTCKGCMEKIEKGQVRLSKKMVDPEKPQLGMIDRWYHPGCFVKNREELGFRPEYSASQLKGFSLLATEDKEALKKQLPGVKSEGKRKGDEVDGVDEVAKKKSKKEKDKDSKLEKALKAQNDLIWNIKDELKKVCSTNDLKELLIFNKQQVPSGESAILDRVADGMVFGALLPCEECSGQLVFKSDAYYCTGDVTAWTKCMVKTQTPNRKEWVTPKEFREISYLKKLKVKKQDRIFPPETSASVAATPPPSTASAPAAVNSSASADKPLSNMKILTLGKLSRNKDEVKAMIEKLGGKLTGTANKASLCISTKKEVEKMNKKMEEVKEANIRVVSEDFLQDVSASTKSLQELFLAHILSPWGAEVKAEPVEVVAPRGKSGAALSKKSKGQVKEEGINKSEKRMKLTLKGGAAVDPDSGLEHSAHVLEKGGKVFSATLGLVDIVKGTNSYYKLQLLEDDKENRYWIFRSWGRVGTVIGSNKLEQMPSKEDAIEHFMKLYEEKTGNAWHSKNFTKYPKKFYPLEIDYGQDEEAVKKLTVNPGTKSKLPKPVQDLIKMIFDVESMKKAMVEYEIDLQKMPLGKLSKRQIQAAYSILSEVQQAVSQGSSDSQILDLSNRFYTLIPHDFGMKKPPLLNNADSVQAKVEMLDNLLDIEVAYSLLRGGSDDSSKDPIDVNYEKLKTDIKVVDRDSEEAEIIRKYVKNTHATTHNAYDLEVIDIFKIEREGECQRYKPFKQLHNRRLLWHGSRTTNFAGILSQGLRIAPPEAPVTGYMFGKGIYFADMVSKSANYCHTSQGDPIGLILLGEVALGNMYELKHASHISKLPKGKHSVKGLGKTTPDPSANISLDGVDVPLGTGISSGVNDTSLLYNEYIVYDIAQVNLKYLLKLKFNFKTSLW

## O=c1[nH]c(C2=CC(N3CC=C(c4ccccc4)CC3)CC2)nc2ccccc12 (stereo not shown) [Compound A, 2-[3-(4-phenyl-3,6-dihydro-1(2H)-pyridinyl)-1-cyclopenten-1-y 1]-4(3H)-quinazolinone]
  IC50: < 500 nM
